According to patent US8987192B2, “Potent and selective mediators of cholesterol efflux” (The Regents of the University of California, priority 2006, dated 2015):
Entries after “also recorded” stand apart in the source; their conditions may differ.

Tests used:
[1] = tested on: Apolipoprotein E deficient (ApoE −/−) mice; assay: In vivo cholesterol efflux and Reverse Cholesterol Transport from injected macrophage foam-cells; design: species or system mouse; details: 20 mg/kg IP
Procedure: Apolipoprotein E deficient (ApoE −/−) mice at 6 months of age were used to evaluate the ability of the polypeptide of SEQ ID NO:4 to stimulate cholesterol efflux and Reverse Cholesterol Transport (RCT) in vivo. [^3H]cholesterol-labeled macrophage foam-cells (i.e., loaded with acetylated LDL) were injected into the intraperitoneal (IP) cavity of Apo E −/− mice in the presence and absence of the polypeptide of SEQ ID NO:4 (20 mg/kg). The polypeptide stimulated cholesterol efflux in vivo, as judged by a pronounced (2-fold) increase in the levels of macrophage derived [^3H]cholesterol appearing in plasma at 8 and 24 hour post-injection, compared to saline vehicle alone (see, FIG. 20). This was accompanied by a greater than 2-fold increase in fecal sterol secretion at 8 and 24 h. In general, the effects of the peptide were relatively long-lived persisting up to 48 h.

[2] = tested on: Interleukin-6; assay: Serum Interleukin-6 in ApoE -/- mice (fluorescent bead immunoassay); format: in vivo, mouse
Excerpt: Apolipoprotein E deficient (ApoE −/−) mice at 6 weeks old were given a Western diets for 18 weeks before commencing treatment. Once daily, intraperitoneal injections were given as saline or the polypeptide of SEQ ID NO:4 (n=6-7 per group). At termination, serum was collected and analyzed for Interleukin-6 concentration by a fluorescent bead immunoassay utilizing flow cytometry (BMS820FF). Mice treated with the polypeptide of SEQ ID NO:4 had about 68% lower serum levels of IL-6 (see, FIG. 22).

[3] = tested on: LDLr knockout mice; assay: Atherosclerosis in LDLr knockout mice; format: in vivo, mouse; details: 30 mg/kg IP every day for 6 weeks on chow after 26 weeks western-diet
Procedure: Beginning at 6 weeks of age, LDLr knockout mice were fed a high-fat western-diet for 26 weeks. After the dietary challenge, mice were switched to standard chow for 6 weeks. During the 6 weeks on chow diet, mice were injected IP every day with either the polypeptide of SEQ ID NO:4 or a polypeptide of SEQ ID NO:4:POPC complexes at a dose of 30 mg/kg. Control mice received IP injections with PBS vehicle alone. The presence of plaque lesions in the whole aorta was then evaluated.

[4] = tested on: Apolipoprotein E knock-out mice; assay: Atherosclerosis in Apolipoprotein E knock-out mice on Western diet, pooled series (Example 19); format: in vivo, mouse
Procedure: The polypeptide of SEQ ID NO:4 and its Y26 analog have been evaluated with respect to ability to inhibit atherosclerosis in Apolipoprotein E knock-out mice. The mice were given Western diet for 18 weeks and then randomized to receive saline, free polypeptide or polypeptide-phospholipid complex. […] The degree of atherosclerosis was then determined in whole aorta and aortic root/sinus. Three experimental series were performed. […] The results are equal to or better than previously have been obtained with IV infusions of 40 mg/kg Apolipoprotein A-I Milano/phospholipids complex into Apo E knock-out mice (Shah et al., Circ., 97:780-5, 1998).
As noted above, data from three experimental series were pooled. Pooling of data is justified as only minor changes in the procedures were made (21 injections at 30 mg/kg over 42 and 21 days, respectively), and the diet regimens and sources of mice and polypeptide, respectively, were the same. In the first experiment S26 was substituted for Y26.

[5] = 30 mg/kg IP, 6 weeks of treatment

EVRSKLEEWFAAFREFAEEFLARLKS (ATI-5261 amphipathic alpha-helix polypeptide core sequence selectively binds HDL, high-affinity ligand for ATP-binding cassette transporter A1 (ABCA1), ABCA1-lipid cholesterol efflux, ABCA1-stablization, anti-oxidant and anti- inflammatory activity) [SEQ ID NO:4]
persistence of effects [1]: up to 48 h | increase in fecal sterol secretion ([1]; 8 and 24 h): greater than 2 fold | increase in macrophage derived [3H]cholesterol in plasma ([1]; 8 and 24 hour post-injection, vs saline): 2 fold | serum IL-6 versus saline (in words) ([2]; mouse, in vivo): lowered levels of the inflammatory cytokine IL-6 | lower serum levels of IL-6 ([2]; once daily IP, vs saline, after 18 weeks Western diet): about 68% | plaque lesions in the whole aorta [3]: reduced plaque lesion area over the whole aorta; also recorded: the amount of plaque was reduced | lipid-content of aortic sinus plaque [4, 5]: decreased the lipid-content of aortic sinus plaque | plaque lesion area over the whole aorta [4, 5]: reduced plaque lesion area over the whole aorta | antiatherosclerotic effect (whole aorta and aortic root/sinus) ([4]; 30 mg/kg IP, 21 injections, pooled data of three series): significant antiatherosclerotic effects | p versus control, FIG. 19A percent of lipid in plaque in whole aorta ([4]; pooled data): < 0.0040
